# Test results published in US6710060B2, “4-hydroxypiperidine derivatives having antiarrhythmic activity” (Mochida Pharmaceutical Co., Ltd., priority 1999, dated 2004).
# Structures can show the parent of a compound that is named as a salt.
# Assays:
# female Crj(SD)IGS rats = settings: oral gavage once a day for 14 days, 6-week aged female rats
# [1] = tested on: isolated cardiac muscle cells; test: Suppression activity of veratrine-induced contracture of isolated cardiac muscle; assay type: cell-based; settings: Cardiac muscle cell, 5 min; rat isolated cardiac muscle cells, veratrine 100 gg/mL, 5 minutes after addition, probit analysis; read-out: IC50 (concentration of the test compound when half of the cells were contracted)
# Protocol: [Suppression Activity of Veratrine-Induced Contracture of Isolated Cardiac Muscle]
# Rats were anesthetized with 40 mg/kg (i.p.) of pentobarbital sodium and held in supine postion, and heparin was injected through the jugular vein. […] A polyethylene tube filled with Krebs-Ringer-HEPES (KRH) solution (pH 7.4) containing 1 mM CaCl2 was inserted through the aorta in retrograde manner, and the tube was fixed. The heart was extracted simultaneously with perfusion of the KRH solution at a hydraulic pressure of 70 cm water column. After thoroughly flushing the remaining blood by spontaneous contraction of the heart, stroke of the heart was halted by perfusion of the Ca^2+ free KRH solution for 10 minutes. The perfusion solutions described above were used after oxygenation with a mixed gas containing 95% O2 and 5% CO2 and keeping at a temperature of 37° C. Then, a KRH solution containing 25 μM CaCl2, 0.06% collagenase and 0.1% albumin was perfused for 20 minutes at 37° C. until the heart was soften. The ventricles were cut into pieces in the collagenase solution at 37° C., followed by an enzyme treatment for 10 minutes while aerating the solution with the mixed gas of 95% O2/5% CO2. The cells were dispersed by pipetting, and connective tissues were removed from the dispersed cells by filtering with a stainless steel mesh. After halting the enzyme reaction by adding albumin in the filtrate, the supernatant was discarded by centrifugation. The cells were suspended in the KRH solution containing 25 μM CaCl2 and 1% albumin, and the Ca^2+ concentration was increased stepwise by sequentially adding the CaCl2 solution in the suspension to a final concentration of 0.5 mM. A pellet of the cells was obtained by centrifugation after allowing the suspension to stand for 10 minutes. The pellet of the cells was laid on a column (10 cm in height and 15 mm in diameter) filled with the KRH solution containing 1 mM CaCl2 and 2% albumin, and the column was allowed to stand for 5 to 10 minutes. The supernatant was gently removed, and the number of rod-shaped cells in the precipitated cells was counted. The cells were re-suspended in the KRH solution containing 1 mM CaCl2 and 0.1% albumin, and pipetted into each well of a 48 well multi-plate (3548, COSTER) coated with poly-L-lysine so that each well contains 0.5 mL of the cell suspension with 1×10^4 cells/well. The suspension in each well was aerated with a mixed gas of 95% O2/5% CO2 at 37° C. for 1 hour to allow the cells to adhere on the bottom of the well. […] Then, the medium was replaced with a KRH solution containing a test compound, 0.025% lactic acid and 1 mM CaCl2, followed by aerating with a mixed gas containing 95% O2/5% CO2 at 37° C. for 30 minutes. After taking a photograph under a microscope, a KRH solution containing veratrine, 0.025% lactic acid and 1 mM CaCl2 was added to each well so that the final concentration of veratrin becomes 100 gg/mL, followed by taking a photograph of morphological changes of the cells after 5 minutes passed from the addition. A change from the rod-shape cell to a spherical cell was defined as contraction by veratrine. Veratrine in this concentration can contract all the cells. The concentration of the test compound when half of the cells were contracted was defined as IC50 (μmol/L) that can be calculated by a probit analysis.
# [2] = tested on: Electrocardiogram in Rats; test: Effect on electrocardiogram in rats; assay type: in vivo; settings: 5 mg/kg intravenous, anesthetized rat, two minutes after administration
# Protocol: [Effect on Electrocardiogram in Rats]
# After anesthetizing with 1.5 g/kg (s.c.) of urethane, a rat was fixed on a warm plate at its supination. Polyethylene tubes for administering a test compound and for measuring the blood pressure were inserted into and fixed to the jugular vein and femoral artery, respectively. The blood pressure of the artery was measured using a pressure transducer. An electrode was attached to the animal, electrocardiograms were led by the standard lead II. The heart rate was measured by using a heart rate counter. The test compound was given by intravenous injection when the blood pressure and heat rate had been stabilized after the operation. […] Each parameter on the electrocardiogram was processed using an analysis software running on the personal computer to calculate the rate of change as compared with that before administration.
# [3] = tested on: Ischemia-Reperfusion Induced Arrythmia Model in Rats; test: Suppression effect on ischemia-reperfusion induced arrythmia in rats; assay type: in vivo, rat
# Protocol: [Suppression Effect on Ischemia-Reperfusion Induced Arrythmia in Rats]
# The test compounds were administered to rats starved from a day before by gavage at a dosage of 10 mL/kg under an awaken condition. The rats were anesthetized with 60 mg/kg (i.p.) of sodium pentobarbital after 35 minutes passed from the administration, and were fixed on a warmed sheet in supine position. The body temperature was kept at 37° C. during the experiment, and artificial respiration was started under a condition of 15 mL/Kg and 55 strokes/minutes. […] Then, the left chest was open, and the left major coronary artery at an atrium side was sewed using a needle with a thread in order to ligate the coronary artery. After stabilizing for about 10 minutes (after 60 minutes passed from the administration), the coronary artery was ligated for 5 minutes, and re-perfused for 10 minutes thereafter. The ligation of the coronary artery was conducted by inserting a suture through a snare made of a polyethylene tube and pulling the both ends of the suture, followed by pressing the snare onto the heart. The re-perfusion was conducted by removing the snare. The aortic blood pressure was measured with a pressure transducer. An electrocardiogram was led by a standard lead II. […] After the completion of the experiments, generation of ventricular fibrillation was confirmed for each individual using an analysis software running on the personal computer, and incidence (%) of the ventricular fibrillation was determined for each administration group.
SMILES,daily dosage at which no fatal cases were observed (female Crj(SD)IGS rats),IC50 [1],PQ Distance (rate of change) [2],QRS Width (rate of change) [2],"Incidence (%) of the ventricular fibrillation ([3]; Table 2-2, 5 mg/kg by gavage, solvent group 57.1)","Incidence (%) of the ventricular fibrillation ([3]; Table 2-1, 5 mg/kg by gavage, ligation 60 min after administration, solvent group 63.6)","Incidence (%) of the ventricular fibrillation ([3]; Table 2-1, 10 mg/kg by gavage, solvent group 63.6)","Incidence (%) of the ventricular fibrillation ([3]; Table 2-1, 20 mg/kg by gavage, solvent group 63.6)"
"CC(C)Oc1ccc(N(C)CCC2(O)CCN(C(c3ccccc3)c3ccccc3)CC2)cc1 [Example 278, 1-diphenylmethyl-4-[2-[N-methyl-N-(4-isopropoxyphenyl)-amino]ethyl]piperidin-4-ol dihydrochloride]",≤ 20 mg/kg,0.3 µM,— (The rate of change at two minutes after administration is 15% or less as compared with that before administration.),— (The rate of change at two minutes after administration is 15% or less as compared with that before administration.),0.0%,–,–,–
"CCCCOc1ccc(N(C)CCC2(O)CCN(Cc3ccccc3)CC2)cc1 [Example 146, 1-benzyl-4-[2-[N-(4-n-butoxyphenyl)-N-methylamino]ethyl]piperidin-4-ol dihydrochloride]",≤ 100 mg/kg,1.2 µM,— (The rate of change at two minutes after administration is 15% or less as compared with that before administration.),— (The rate of change at two minutes after administration is 15% or less as compared with that before administration.),–,30.0%,11.1%,0.0%
